Assay [1] has as its system CS3 binding domain. Description: CS3 binding on RH9 cells stimulated with anti-CD3 or TPA. Type of assay: cell-based, human. On the procedure:
(§1) FIG. 11. Cultures of RH9 cells were incubated with 10 ng/ml PMA (TPA) or 10 μg/ml antibody to the CD3 cell surface antigen or in medium alone. Comparisons are presented for each day of analysis for expression of CD4 (left panel) or CS3 binding (right panel). 0.50% of RH9 cells bound CS3-HSA-FITC. Relative to control cultures treatment with anti-CD3 increased CS3 domain expressing cells by 71% at 48 hours and 56% at 72 hours, while TPA increased CS3-binding by 32% at 72 hours. CS3-HSA-FITC fluorescence intensity, reflecting the number of receptors per cell, increased while CD4 expression decreased in intensity and number of positive cells (8% at 24 hours).

Assay [2] concerns CD4. The assay can be described thus: CD4 expression on RH9 cells stimulated with TPA. Type of assay: cell-based, human. Here is the method: as §1

With `CCCCCCCCCCCCCC(=O)O[C@@H]1[C@@H](C)[C@@]2(O)[C@@H](C=C(CO)C[C@]3(O)C(=O)C(C)=C[C@@H]23)[C@@H]2C(C)(C)[C@]12OC(C)=O` [TPA, tetraphorbol 13-myristyl acetate], the “CS3 binding / receptor density after stimulation” value in assay [1] is “CS3 binding was increased”. Also, the “increase in CS3 domain expressing cells / CS3-binding relative to control cultures” value in assay [1] (72 hours) is 32%. In addition, in assay [2], the “CD4 expression after treatment” value is listed as “lost”.
